Experimental findings from patent publication US20040086901A1, “Database for analyzing gene function and method of analyzing gene function by dspa” (priority 2000, published 2004) are described below.

Molecules are shown by their SMILES.

Common to all, as to assay type: cell-based, mouse
The test system of experiment [1] is NIH3T3 cells overexpressing JNK-DN. Nature of the experiment: MTT cell viability, JNK-DN overexpressing cells vs parental line. The following applies: JNK-DN high-expressing cells / parental cell line, 3 to 4 days. The method, boiled down:
(§1)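 Stable NIH3T3 transfectants (cDNA in pRc-CMV-type vector, G-418-selected, high expressers picked by Western blot) and parental cells were seeded at 1×10^5 cells/ml into twofold serial drug dilutions and grown 3–4 days. MTT formazan was read at 574/655 nm, and log ratios of IC40 values were derived.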

For experiment [2], the system named is NIH3T3 cells, TPA (PKC downreg). Nature of the experiment: MTT cell viability, TPA (PKC downreg) cells vs parental line. The note with it: 3 to 4 days.
Experiment [3] relates to NIH3T3 cells overexpressing DAN. In words: MTT cell viability, DAN overexpressing cells vs parental line. The note with it: DAN high-expressing cells / parental cell line, 3 to 4 days. The method in brief: as §1
Experiment [4] relates to NIH3T3 cells overexpressing PDGF-R. In words: MTT cell viability, PDGF-R overexpressing cells vs parental line. The following applies: PDGF-R high-expressing cells / parental cell line, 3 to 4 days. The method in brief: as §1
The subject of experiment [5] is NIH3T3 cells overexpressing ERK-DN. In words: MTT cell viability, ERK-DN overexpressing cells vs parental line. The following applies: ERK-DN high-expressing cells / parental cell line, 3 to 4 days. The method in brief:
(§2)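 Sensitivity is expressed as the logarithm of the ratio of IC40 values between gene-overexpressing and parental NIH3T3 cells. IC40 comes from an MTT assay after 3–4 days of drug exposure, with absorbance read at 574 nm against 655 nm. Untreated wells served as 100% and cell-free wells as 0% controls.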

Experiment [6] relates to NIH3T3 cells overexpressing cAMP-PK-CS. In words: MTT cell viability, cAMP-PK-CS overexpressing cells vs parental line. The note with it: cAMP-PK-CS high-expressing cells / parental cell line, 3 to 4 days. The method in brief:
as §2

The subject of experiment [7] is NIH3T3 cells overexpressing HSP9O. Nature of the experiment: MTT cell viability, HSP9O overexpressing cells vs parental line. The following applies: HSP9O high-expressing cells / parental cell line, 3 to 4 days. The method, boiled down: as §1
Experiment [8] has as its system NIH3T3 cells overexpressing Gluco-corticoid-R. In words: MTT cell viability, Gluco-corticoid-R overexpressing cells vs parental line. The note with it: Gluco-corticoid-R high-expressing cells / parental cell line, 3 to 4 days. The method in brief:
as §2

Experiment [9] has as its system NIH3T3 cells overexpressing erbB2. Nature of the experiment: MTT cell viability, erbB2 overexpressing cells vs parental line. The note with it: erbB2 high-expressing cells / parental cell line, 3 to 4 days. The method in brief: as §1
Experiment [10] relates to NIH3T3 cells overexpressing caspase-3. In words: MTT cell viability, caspase-3 overexpressing cells vs parental line. The note with it: caspase-3 high-expressing cells / parental cell line, 3 to 4 days. The method in brief:
as §2

The subject of experiment [11] is NIH3T3 cells overexpressing HSP4O. Nature of the experiment: MTT cell viability, HSP4O overexpressing cells vs parental line. The note with it: HSP4O high-expressing cells / parental cell line, 3 to 4 days. The method in brief: as §1
In experiment [12] the test system is NIH3T3 cells overexpressing RhoA. Nature of the experiment: MTT cell viability, RhoA overexpressing cells vs parental line. The following applies: RhoA high-expressing cells / parental cell line, 3 to 4 days. The method in brief: as §1
The test system of experiment [13] is NIH3T3 cells overexpressing CaMKIIa. In words: MTT cell viability, CaMKIIa overexpressing cells vs parental line. The note with it: CaMKIIa high-expressing cells / parental cell line, 3 to 4 days. The method in brief:
as §2

Experiment [14] relates to NIH3T3 cells overexpressing CP-antisense. Nature of the experiment: MTT cell viability, CP-antisense cells vs parental line. The following applies: 3 to 4 days. The method in brief: as §1
Experiment [15] relates to NIH3T3 cells overexpressing v-src. In words: MTT cell viability, v-src overexpressing cells vs parental line. The note with it: v-src high-expressing cells / parental cell line, 3 to 4 days. The method in brief: as §1
The test system of experiment [16] is NIH3T3 cells overexpressing PKCalpha-KN. In words: MTT cell viability, PKCalpha-KN overexpressing cells vs parental line. The note with it: 3 to 4 days. The method, boiled down: as §2
The test system of experiment [17] is NIH3T3 cells overexpressing p16/INK4A. In words: MTT cell viability, p16/INK4A overexpressing cells vs parental line. The note with it: p16/INK4A high-expressing cells / parental cell line, 3 to 4 days. The method in brief:
as §1

Experiment [18] deals with NIH3T3 cells overexpressing Regucalcin. In words: MTT cell viability, Regucalcin overexpressing cells vs parental line. The note with it: Regucalcin high-expressing cells / parental cell line, 3 to 4 days. The method, boiled down:
as §1

Experiment [19] concerns NIH3T3 cells overexpressing Ha-ras. In words: MTT cell viability, drug sensitivity of Ha-ras overexpressing cells vs parental line. The note with it: Ha-ras high-expressing cells / parental cell line, 3 to 4 days. The method in brief:
as §2

Experiment [20] concerns NIH3T3 cells overexpressing m-calpain. In words: MTT cell viability, m-calpain overexpressing cells vs parental line. The note with it: m-calpain high-expressing cells / parental cell line, 3 to 4 days. The method, boiled down: as §2
Where [21] appears, read: PKCalpha-KN (first of two lines) high-expressing cells / parental cell line.
[22] abbreviates: PKCalpha-KN (second of two lines) high-expressing cells / parental cell line.

For the compound `COC[C@H]1OC(=O)c2coc3c2[C@@]1(C)C1=C(C3=O)[C@@H]2CCC(=O)[C@@]2(C)C[C@H]1OC(C)=O` [Wortmannin, wortmannin], the “logarithmic value of ratio of IC40 values” is listed as −0.09 in [1]; 0.00 in [2]; 0.52 in [3]; 0.00 in [4]; −0.11 in experiment [5]; −0.07 in [6]. Further, the “logarithmic value of ratio of IC40 values” is reported as 0.18 in experiment [7]; 0.09 in [8]; 0.16 in [9]; 0.45 in [10]; −0.07 in experiment [11]; 0.24 in experiment [12]. Also, the “logarithmic value of ratio of IC40 values” in experiment [13] is given as −0.15; in [14], −0.12; in [15] it was 0.08; in [16] (setting [21]), 0.41; in experiment [16] (setting [22]), −0.06; in experiment [17], 0.30. For the same compound, the “logarithmic value of ratio of IC40 values” in [18] is −0.28; in experiment [19] it was 0.34; in [20], 0.18.
For the compound `CNc1ccc2oc(C[C@H]3O[C@@]4(CC[C@H]3C)O[C@H]([C@H](C)C(=O)c3ccc[nH]3)[C@H](C)C[C@H]4C)nc2c1C(=O)O` [A23187], the “logarithmic value of ratio of IC40 values” is reported as −0.08 in [1]; −0.22 in experiment [2]; 0.40 in experiment [3]; 0.31 in experiment [4]; 0.00 in experiment [5]; −0.08 in experiment [6]. Moreover, the “logarithmic value of ratio of IC40 values” is 0.28 in experiment [7]; 0.28 in experiment [8]; −0.07 in experiment [9]; 0.28 in experiment [10]; −0.16 in experiment [11]; 0.26 in experiment [12]. Also, the “logarithmic value of ratio of IC40 values” in [13] is listed as 0.00; in experiment [14], −0.36; in [15], −0.19; in [16] (setting [21]), 0.22; in experiment [16] (setting [22]) it was −0.05; in [17] it was 0.00. The “logarithmic value of ratio of IC40 values” in [18] is 0.03; in [19] it was −0.28; in experiment [20], 0.26.
Regarding `C=C1[C@@H](O)[C@@H]2O[C@]3(CC[C@H](/C=C/[C@@H](C)[C@@H]4CC(C)=C[C@@]5(O[C@H](C[C@@](C)(O)C(=O)O)CC[C@H]5O)O4)O3)CC[C@H]2O[C@@H]1[C@@H](O)C[C@H](C)[C@H]1O[C@@]2(CCCCO2)CC[C@H]1C` [OA, okadaic acid], the “logarithmic value of ratio of IC40 values” was −0.07 in experiment [1]; 0.12 in experiment [2]; 0.04 in experiment [3]; 0.16 in experiment [4]; 0.00 in experiment [5]; 0.08 in experiment [6]. The “logarithmic value of ratio of IC40 values” in [7] is on record as 0.07; in experiment [8] it was 0.06; in [9], −0.19; in [10] it was 0.00; in experiment [11], −0.02; in [12], 0.00. Further, the “logarithmic value of ratio of IC40 values” in [13] is listed as 0.00; in experiment [14], 0.13; in [15], 0.18; in [16] (setting [21]) it was 0.09; in experiment [16] (setting [22]), 0.00; in [17], 0.06. Further, the “logarithmic value of ratio of IC40 values” in experiment [18] was −0.10; in experiment [19] it was 0.11; in [20], −0.08.
